# Reference: patent US9261497B2, “Method of treating cancer with modulators of SCFSkp2” (New York University, priority 2012, dated 2016)
# Key:
# [1] = test system: ARP-1; assay: Viable cells, multiple myeloma ARP-1; format: cell-based, human; settings: 24 hours
# Description: (§1) Viable and metabolically active cells were assayed using CellTiter-Blue (Promega) or PrestoBlue (Invitrogen) following manufacturer's instruction. In a 96 well plate format, 15×10^3 cells were pretreated with 0.1% Vehicle or increasing concentration of inhibitors as noted (for 16 h, 24 h, 48 h, and/or 72 hr) and fluorescence was detected on the SpectraMax M2e (Molecular Devices) after 30 min incubation with dye.
# [2] = target: T1, His-6Skp1-Skp2-Cks1 (Homo sapiens, UniProt P61024+Q13309); assay: Differential scanning fluorimetry (protein melt); format: binding; settings: compound 75 μM; protein 1.5 μM
# T1 construct: His6-tagged human Skp2 (residues 89-424); Human full-length Cks1 was produced as described; made in house
# Description: Protein melt assays were carried out following the manufacturer's protocol on the LightCycler 480 System II (Roche) using Sypro Orange dye (Sigma). Fluorescence (465 nm excitation/580 nm detection) was acquired (10 data points/sec) at a ramp rate of 0.06° C./sec between 20° C. and 85° C. Melting temperatures were calculated using the LightCycler 480 Protein Melt analysis tool (Roche).
# [3] = test system: MCF-7; assay: Viable and metabolically active cells, MCF-7; format: cell-based, human; settings: 16 h
# Description: as §1
# [4] = test system: KSM-11; assay: Viable cells, multiple myeloma KSM-11; format: cell-based, human; settings: 24 hours
# Description: as §1
# [5] = test system: p27 in ECC-1 cells; assay: Cycloheximide p27 half-life in ECC-1 cells; format: cell-based, human; settings: 18 h treatment, 20 μM CHX chase, control 3.2 h
# Description: The endometrial carcinoma cell line (derived from a well-differentiated endometrioid Type I ECA) ECC-1 cells (ATCC, Manassas, Va.) were plated at a density of 3×10^5/well/6-well plate and grown in DMEM:F12 supplemented with 10% FBS (BioWest, Ocala, Fla.). The cell line was passaged in the laboratory for fewer than 6 months after receipt. […] The protocol was approved by The Institutional Review Board of NYU, informed consent was obtained, and the samples were identified and graded by two surgical pathologists and graded according to the WHO (I-III) for decreased glandular structure and nuclear atypia (Silverberg, “Hyperplasia and Carcinoma of the Endometrium,” Semin. Diagn. Pathol. 5:135-153 (1988), which is hereby incorporated by reference in its entirety). ECAs were plated at a density of 2.2×10^6 cells/6-well Primaria® plates (BD Biosciences, San Jose, Calif.) in McCoys 5A media without phenol red containing 10% charcoal-stripped FBS, 2 mM L-Glutamine (Invitrogen) and antimycotic antibiotic solution (Mediatech, Hendon, Va.). ECC-1 cells and primary ECA cells were grown to 70-80% confluence, synchronized in serum-free media for 24 h, treated with 10 […] Skp2E3LIs for 18 h or as indicated in the figures. […] Whole cell lysates were collected at increasing time points (0, 2, 4, 6 h) and 20 μg protein/well analyzed for p27 by immunoblotting.
# [6] = test system: ECC-1 cells; assay: ECC-1 cell proliferation (MTS assay); format: cell-based, human; settings: for Inhibition of cellular proliferation over the Vehicle control: 10 μM (FIG. 13A); for Blocking E2-induced proliferation: compound plus E2 (FIG. 14D)
# [7] = test system: LNCaP; assay: Cell cycle FACS analysis, LNCaP; format: cell-based, human; settings: 10 μM for 16 hours
# Description: Whole cell extracts were prepared and immunoblotted as previously described Dorrello et al., “S6K1- and betaTRCP-mediated Degradation of PDCD4 Promotes Protein Translation and Cell Growth,” Science 314:467-471 (2006), which is hereby incorporated by reference in its entirety. For knockdown of Skp2 or p27, shRNAs were induced with 2 ng/ml doxycycline for 48 hours, with the last 16 hours co-treated with 0.1% Vehicle or 10 μM inhibitors as indicated. For cycloheximide chase, cells were pretreated 16 h with 0.1% Vehicle or 10 μM inhibitors, followed by 20 ng/ml cycloheximide (Sigma) and whole cell extracts collected for each time point. Scanning densitometry was performed on immunoblots using Image J software. For cell cycle analysis, cells were treated with 0.1% Vehicle or 10 μM inhibitors for 16 h. 1×10^6 cells were fixed in 70% ethanol for 2 h, treated with 200 μg/ml RNase A (Invitrogen) for 30 minutes, and stained with 20 μg/ml Propidium Iodine (Sigma). All samples were assayed in triplicates. Signal was detected using the Becton Dickson LSRII flow cytometer and cell cycle profiles were analyzed with FloJo.
# [8] = test system: p27 in 501 Mel cells; assay: Cycloheximide p27 half-life in 501 Mel cells; format: cell-based, human; settings: pretreated 16 hours with 10 μM inhibitor, vehicle half-life 1 hour
# Description: To assess the mechanism of p27 induction, cycloheximide half-lives were analyzed in 501 Mel cell lines pretreated with each inhibitor (10 μM) or 0.1% DMSO (vehicle). p27 degraded rapidly with a half-life of 1 hour with vehicle, and this rate was slowed by the inhibitors (FIG. 4C). […] Protein levels of Skp2 and Skp1 remained constant.
# Whole cell extracts were prepared and immunoblotted as previously described Dorrello et al., “S6K1- and betaTRCP-mediated Degradation of PDCD4 Promotes Protein Translation and Cell Growth,” Science 314:467-471 (2006), which is hereby incorporated by reference in its entirety. For knockdown of Skp2 or p27, shRNAs were induced with 2 ng/ml doxycycline for 48 hours, with the last 16 hours co-treated with 0.1% Vehicle or 10 μM inhibitors as indicated. For cycloheximide chase, cells were pretreated 16 h with 0.1% Vehicle or 10 μM inhibitors, followed by 20 ng/ml cycloheximide (Sigma) and whole cell extracts collected for each time point. 20 ng/ml cycloheximide (Sigma) was added to each plate and whole cell extract was collected for each time point. Scanning densitometry was performed on immunoblots using Image J software. For cell cycle analysis, cells were treated with 0.1% Vehicle or 10 μM inhibitors for 16 h. […] Signal was detected using the Becton Dickson LSRII flow cytometer and cell cycle profiles were analyzed with FloJo.
# [9] = target: T2, His6-Skp2-Skp1-Cks1 complex (Homo sapiens, UniProt P61024+Q13309); assay: Surface plasmon resonance (SPR); format: binding; settings: 1:1 interaction model; 25° C.
# T2 construct: His6-tagged human Skp2 (residues 89-424); Human full-length Cks1 was produced as described; made in house
# T2 sequence (Q13309 89-424 limits assumed): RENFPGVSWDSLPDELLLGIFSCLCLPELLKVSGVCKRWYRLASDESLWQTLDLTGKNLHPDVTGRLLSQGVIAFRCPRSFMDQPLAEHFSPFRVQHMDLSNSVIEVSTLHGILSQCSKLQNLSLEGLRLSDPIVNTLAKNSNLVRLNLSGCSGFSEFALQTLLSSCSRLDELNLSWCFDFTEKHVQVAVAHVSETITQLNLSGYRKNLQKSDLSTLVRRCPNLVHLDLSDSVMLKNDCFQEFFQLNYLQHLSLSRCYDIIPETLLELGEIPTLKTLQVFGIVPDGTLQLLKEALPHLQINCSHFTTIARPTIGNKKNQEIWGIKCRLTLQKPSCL
# T2 sequence (P61024 whole entry, the tested form may be a part): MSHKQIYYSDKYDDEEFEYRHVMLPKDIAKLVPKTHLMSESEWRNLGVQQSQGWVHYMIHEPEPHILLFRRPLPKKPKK
# T1 sequence (Q13309 89-424 limits assumed): as the sequence (Q13309 89-424 limits assumed) above
# T1 sequence (P61024 whole entry, the tested form may be a part): as the sequence (P61024 whole entry, the tested form may be a part) above
Compound,Extension of p27 half-life over cycloheximide (CHX) control [5] [h],Inhibition of cellular proliferation over the Vehicle control [6] [%],Blocking E2-induced proliferation [6],p27 half-life [8] [h],other results
O=C(O)COc1ccc(Br)cc1C=C1SC(=S)N(Cc2cccnc2)C1=O [Compound C1],,,,,IC50 [1]: 3.84 µM; Shift of melting temperature (Tm) of purified protein complex [2]: shifted the melting temperature; Rate of active cells [3]: a lower rate of active cells; IC50 [4]: 1.84 µM
COC(=O)C1=C(C)N(c2ccc(Br)cc2)C(=O)C1=Cc1ccccc1O [Compound C2],6.1,33,"equal to the effect of blocking ER activation with ICI 182,780",,"EC50 ([6]; Hillslope method, read-out: EC50 inhibiting proliferation): 14.3 µM; G1 cells [7]: a mild, but significant, increase in G1 cells; S phase cells [7]: a reduction in S phase cells"
O=C(O)COc1ccc(C=C2SC(=O)N(CC(=O)c3ccc(Cl)cc3)C2=O)cc1 [Compound C16],,,,3,
O=C(NN=Cc1cc(Br)cc(Br)c1O)C(=Cc1ccccc1O)NC(=O)c1ccccc1 [Compound C20],2.7,30,"equal to the effect of blocking ER activation with ICI 182,780",5,Kd [9]: 47 ± 14 µM
